Test results as given in article PMC6120666 (The EMBO Journal, 2018).

What follows are compounds tested against T1, recombinant RIPK2 kinase (Homo sapiens, UniProt O43353) (assay: RIPK2 ADPGlo in vitro kinase assay). Settings: average ± SD of at least three titrations, read-out: IC50, In vitro kinase, RIPK2 ADPGIo.
T1 construct: made in house
Format: biochemical
Description: The BIR2 domains of XIAP and cIAP1 were cloned into the pGEX‐6P1 vector and were expressed in E. coli (BL21) cells as a fusion protein with N‐terminal 6xHis (XIAP BIR2 only) and GST tags. Protein expression was induced with IPTG, and cells were lysed using BugBuster protein extraction reagent (#70921, Merck Millipore) according to manufacturer's instructions. Proteins were purified with the FPLC protein purification system ÄKTA PrimePlus (GE Healthcare Life Sciences) using HisTrap FF column purification followed by gel filtration (HiLoad 26/600 Superdex 75 pg (GE Healthcare Life Sciences)). Collected fractions were stored at −80°C and used for probing of peptide array membranes. Expression and purification of recombinant RIPK1‐3 was performed as previously described (Canning et al, 2015; Najjar et al, 2015). RIPK1‐3 ADPGlo kinase assays using 20 ng/well protein were performed for 2 h at room temperature also as previously described (Canning et al, 2015; Najjar et al, 2015).

T1 sequence (O43353 whole entry): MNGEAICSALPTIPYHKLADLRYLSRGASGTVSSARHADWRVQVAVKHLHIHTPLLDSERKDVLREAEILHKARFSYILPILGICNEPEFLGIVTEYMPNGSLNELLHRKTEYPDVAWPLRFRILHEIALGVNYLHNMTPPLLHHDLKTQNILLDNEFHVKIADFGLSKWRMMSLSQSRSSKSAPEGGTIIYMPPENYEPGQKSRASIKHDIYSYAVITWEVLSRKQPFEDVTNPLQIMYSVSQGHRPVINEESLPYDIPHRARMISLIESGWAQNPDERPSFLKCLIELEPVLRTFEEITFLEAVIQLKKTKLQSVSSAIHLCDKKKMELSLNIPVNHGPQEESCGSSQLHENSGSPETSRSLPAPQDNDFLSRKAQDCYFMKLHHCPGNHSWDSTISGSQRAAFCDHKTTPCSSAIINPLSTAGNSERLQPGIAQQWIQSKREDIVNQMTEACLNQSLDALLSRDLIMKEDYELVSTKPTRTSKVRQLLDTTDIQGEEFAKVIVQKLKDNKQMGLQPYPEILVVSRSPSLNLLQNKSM

How did the IC50 turn out when CCCS(=O)(=O)Nc1cc(-c2cc(-c3ccc(N4CCNCC4)cc3)cnc2N)cc(F)c1OC [CSLP37] was run?
Its IC50 is 16.3 ± 4.6 nM.

For CCCS(=O)(=O)Nc1cc(-c2cc(-c3ccc(N4CCNCC4)cc3)cnc2N)cc(OC)c1OC [CSLP43], which IC50 is on record?
Its IC50 is 19.9 ± 0.8 nM.

How did the IC50 turn out when CCCS(=O)(=O)Nc1cc(-c2cc(-c3ccc(N4CCNCC4)cc3)cnc2N)ccc1O [CSLP48] was run?
Its IC50 is 53.5 ± 5.7 nM.

With COc1cc(-c2cc(-c3ccc(N4CCNCC4)cc3)cnc2N)cc(F)c1OC [CSLP55] as the compound, how does the IC50 read?
The IC50 was 39.1 ± 3.9 nM.

Cc1ccc(-c2nn(C(C)(C)CNC(=O)c3ccncc3)c3ncnc(N)c23)cc1 [WEHI‐345, reference compound] was tested. Which IC50 did it give?
Its IC50 is 37.3 ± 1.3 nM.

These compounds were tested against T2, NanoLuc-RIPK2 (Homo sapiens, UniProt O43353) (assay: nanoBRET cellular RIPK2 residence time assay in HEKBlue cells). Settings: t1/2 for probe to engage RIPK2 after washout of inhibitor.
T2 construct: host or cells: hNOD2-HEKBlue cells
T2 sequence (O43353 whole entry): as above
Format: binding

Which residence time does the source give for CCCS(=O)(=O)Nc1cc(-c2cc(-c3ccc(N4CCNCC4)cc3)cnc2N)cc(F)c1OC [CSLP37] here?
The residence time was 27.1 min.

With CCCS(=O)(=O)Nc1cc(-c2cc(-c3ccc(N4CCNCC4)cc3)cnc2N)cc(OC)c1OC [CSLP43] as the compound, how does the residence time read?
The residence time was 107 min.

Which residence time does the source give for CCCS(=O)(=O)Nc1cc(-c2cc(-c3ccc(N4CCNCC4)cc3)cnc2N)ccc1O [CSLP48] here?
The residence time was 127 min.

COc1cc(-c2cc(-c3ccc(N4CCNCC4)cc3)cnc2N)cc(F)c1OC [CSLP55] was tested. Which residence time did it give?
The residence time was 6.8 min.

Which residence time does the source give for Cc1ccc(-c2nn(C(C)(C)CNC(=O)c3ccncc3)c3ncnc(N)c23)cc1 [WEHI‐345, reference compound] here?
Its residence time is 7.5 min.

These compounds were tested against T3, XIAP BIR2 - RIPK2 interaction (Homo sapiens, UniProt O43353) (assay: GST-BIR2-XIAP pulldown of RIPK2). Settings: U2OS/NOD2 lysates; inhibitors at 100-fold IC50 of RIPK2 kinase activity.
T3 construct: U2OS/NOD2 cells were lysed in TBS lysis buffer; endogenous in cells; host or cells: U2OS/NOD2 cell lysate (RIPK2); E. coli BL21 (GST-BIR2-XIAP)
Format: binding
Description: (§1) For co‐immunoprecipitation of HA‐XIAP with RIPK2, transfected and treated cells were lysed in TBS buffer containing 0.5% NP‐40, cOmplete and PhosSTOP inhibitors (Roche) and the lysate was cleared by centrifugation. The lysates were incubated with anti‐HA‐agarose overnight, washed 3× with lysis buffer, and analyzed by immunoblotting. For GST pulldown experiments, U2OS/NOD2 cells were lysed in TBS lysis buffer containing 0.5% NP‐40, cOmplete and PhosSTOP inhibitors (Roche). Cleared lysates were pretreated with kinase inhibitors or DMSO and incubated with GST‐XIAP‐BIR2 bound to Glutathione Sepharose at 4°C overnight. Bound material was washed 3× with lysis buffer or PBS, eluted with 15 mM Glutathione in PBS, and analyzed by immunoblotting. […] The bound material was eluted and analyzed as described above.
For coimmunoprecipitation of HA-XIAP with RIPK2, transfected and treated cells were lysed in TBS buffer containing 0.5% NP-40, cOmplete and PhosSTOP inhibitors (Roche) and the lysate was cleared by centrifugation. The lysates were incubated with anti-HA-agarose overnight, washed 3x with lysis buffer and analyzed by immunoblotting. For GST pull-down experiments, U2OS/NOD2 were lysed in TBS lysis buffer containing 0.5% NP-40, cOmplete and PhosSTOP inhibitors (Roche).
Cleared lysates were pretreated with kinase inhibitors or DMSO and incubated with GST-XIAP-BIR2 bound to Glutathione Sepharose at 4 °C overnight. Bound material was washed 3x with lysis buffer or PBS, eluted with 15 mM Glutathione in PBS and analyzed by immunoblotting. In pull-down […]
inhibitors or DMSO control in PBS were added together with RIPK2 kinase domain to GST-XIAP-BIR2 bound to Glutathione Sepharose. The bound material was eluted and analyzed as described above. […]

Which “pulldown of RIPK2 by GST-BIR2-XIAP from cell lysates” value (from here on “pulldown of RIPK2 by GST-BIR2-XIAP”) does the source give for CCCS(=O)(=O)Nc1cc(-c2cc(-c3ccc(N4CCNCC4)cc3)cnc2N)cc(F)c1OC [CSLP37] here?
The value was “efficiently antagonized”.

Which “pulldown of RIPK2 by GST-BIR2-XIAP” value does the source give for CCCS(=O)(=O)Nc1cc(-c2cc(-c3ccc(N4CCNCC4)cc3)cnc2N)cc(OC)c1OC [CSLP43] here?
The value was “efficiently antagonized”.

For CCCS(=O)(=O)Nc1cc(-c2cc(-c3ccc(N4CCNCC4)cc3)cnc2N)ccc1O [CSLP48], which “pulldown of RIPK2 by GST-BIR2-XIAP” value is on record?
The value was “little effect”.

For COc1cc(-c2cc(-c3ccc(N4CCNCC4)cc3)cnc2N)cc(F)c1OC [CSLP55], which “pulldown of RIPK2 by GST-BIR2-XIAP” value is on record?
Its value is “little effect”.

Same assay, conditions: recombinant human RIPK2 KD (dephosphorylated); same inhibitor concentrations

Which “GST-BIR2-XIAP binding to recombinant RIPK2 kinase domain” value does the source give for CCCS(=O)(=O)Nc1cc(-c2cc(-c3ccc(N4CCNCC4)cc3)cnc2N)cc(F)c1OC [CSLP37] here?
The value was “still antagonized”.

Which “GST-BIR2-XIAP binding to recombinant RIPK2 kinase domain” value does the source give for CCCS(=O)(=O)Nc1cc(-c2cc(-c3ccc(N4CCNCC4)cc3)cnc2N)cc(OC)c1OC [CSLP43] here?
Its value is “still antagonized”.

What follows are compounds tested on RIPK2 ubiquitination in U2OS/NOD2 and THP-1 cells (assay: Purification of Ub-conjugates (TUBE pulldown), RIPK2 ubiquitination). Settings: U2OS/NOD2 or THP-1 cells, L18-MDP 200 ng/ml, 1 h.
Format: cell-based, human
Description: as §1, with “above. […]” for “above.”
PBS, eluted with 15 mM Glutathione in PBS and analyzed by immunoblotting. […]

CCCS(=O)(=O)Nc1cc(-c2cc(-c3ccc(N4CCNCC4)cc3)cnc2N)cc(F)c1OC [CSLP37] was tested. Which “RIPK2 ubiquitination after L18-MDP” value did it give?
Its value is “inhibited RIPK2 ubiquitination”.

How did the “RIPK2 ubiquitination after L18-MDP” value turn out when CCCS(=O)(=O)Nc1cc(-c2cc(-c3ccc(N4CCNCC4)cc3)cnc2N)cc(OC)c1OC [CSLP43] was run?
Its value is “inhibited RIPK2 ubiquitination”.

For CCCS(=O)(=O)Nc1cc(-c2cc(-c3ccc(N4CCNCC4)cc3)cnc2N)ccc1O [CSLP48], which “RIPK2 ubiquitination after L18-MDP” value is on record?
Its value is “little or no effect”.

Which “RIPK2 ubiquitination after L18-MDP” value does the source give for COc1cc(-c2cc(-c3ccc(N4CCNCC4)cc3)cnc2N)cc(F)c1OC [CSLP55] here?
The value was “little or no effect”.

Each compound was assayed on U2OS/NOD2 cells (assay: Intracellular flow cytometry of CXCL8 after L18-MDP). Settings: U2OS/NOD2 RIPK2 KO cells reconstituted with T95W gatekeeper mutant; L18-MDP 200 ng/ml, 4 h.
Format: cell-based, human
Description: Purified material and lysates were analyzed by immunoblotting. […] Numbering below schematic refers to amino acid residues in human RIPK2 and indicate domain boundaries. […] Data information: Data in (A, B, D, H) represent the mean ± SEM of 2–4 independent experiments, each performed in duplicate. […] Two‐way ANOVA was used to determine statistical significance. See also Fig EV1.Source data are available online for this figure.
Dark gray represents areas occupied by RIPK2; white areas indicate empty spaces in CSLP binding pocket. […] Dotted black box indicates region shown for models with CSLP37 and CSLP43. • Molecular docking model of RIPK2 kinase domain in complex with CSLP43 (green) based on RIPK2/CSLP18 structure from (D). […] Two‐way ANOVA was used to determine statistical significance. See also Fig EV2.
GST-BIR2-XIAP as indicated. Intensity quantification of SPOTs was performed using ImageJ software
Dual luciferase reporter assay
Intracellular flow cytometry of CXCL8
for cell death) or vehicle for 24h. Viability was determined using the CellTiter-Glo® luminescent cell
together with Transfection Carrier DNA (Promega).
After addition of Nano-Glo

With CCCS(=O)(=O)Nc1cc(-c2cc(-c3ccc(N4CCNCC4)cc3)cnc2N)cc(F)c1OC [CSLP37] as the compound, how does the “inhibition of NOD2 signaling (CXCL8) in cells expressing RIPK2 T95W” value (“inhibition of NOD2 signaling (CXCL8)” below) read?
The value was “no longer observed”.

For CCCS(=O)(=O)Nc1cc(-c2cc(-c3ccc(N4CCNCC4)cc3)cnc2N)cc(OC)c1OC [CSLP43], which “inhibition of NOD2 signaling (CXCL8)” value is on record?
The value was “no longer observed”.

CCCS(=O)(=O)Nc1cc(-c2cc(-c3ccc(N4CCNCC4)cc3)cnc2N)ccc1O [CSLP48] was tested. Which “inhibition of NOD2 signaling (CXCL8)” value did it give?
Its value is “not negatively impacted”.

How did the “inhibition of NOD2 signaling (CXCL8)” value turn out when COc1cc(-c2cc(-c3ccc(N4CCNCC4)cc3)cnc2N)cc(F)c1OC [CSLP55] was run?
The value was “not negatively impacted”.

Same assay, conditions: U2OS/NOD2 cells, L18-MDP 200 ng/ml, 4 h

For CCCS(=O)(=O)Nc1cc(-c2cc(-c3ccc(N4CCNCC4)cc3)cnc2N)cc(F)c1OC [CSLP37], which “L18-MDP-induced CXCL8 production” value is on record?
Its value is “potent suppression”.

CCCS(=O)(=O)Nc1cc(-c2cc(-c3ccc(N4CCNCC4)cc3)cnc2N)cc(OC)c1OC [CSLP43] was tested. Which “L18-MDP-induced CXCL8 production” value did it give?
The value was “potent suppression”.

What follows are compounds tested against T2, NanoLuc-RIPK2 (assay: nanoBRET cellular RIPK2 target engagement assay in HEKBlue cells). Settings: average ± SD of at least three titrations, read-out: IC50, Cellular activity, nanoBRET RIPK2 binding.

CCCS(=O)(=O)Nc1cc(-c2cc(-c3ccc(N4CCNCC4)cc3)cnc2N)cc(F)c1OC [CSLP37] was tested. Which IC50 did it give?
The IC50 was 36.3 ± 20.2 nM.

How did the IC50 turn out when CCCS(=O)(=O)Nc1cc(-c2cc(-c3ccc(N4CCNCC4)cc3)cnc2N)cc(OC)c1OC [CSLP43] was run?
Its IC50 is 10.1 ± 3.8 nM.

CCCS(=O)(=O)Nc1cc(-c2cc(-c3ccc(N4CCNCC4)cc3)cnc2N)ccc1O [CSLP48] was tested. Which IC50 did it give?
The IC50 was 1230 nM.

How did the IC50 turn out when COc1cc(-c2cc(-c3ccc(N4CCNCC4)cc3)cnc2N)cc(F)c1OC [CSLP55] was run?
Its IC50 is 195 ± 47.1 nM.

For Cc1ccc(-c2nn(C(C)(C)CNC(=O)c3ccncc3)c3ncnc(N)c23)cc1 [WEHI‐345, reference compound], which IC50 is on record?
The IC50 was 521 ± 172 nM.
